Test results as given in patent US10301271B2, “Crystalline forms of tyrosine kinase inhibitors and their salts” (PURDUE PHARMA L.P., priority 2014, dated 2019).

Columns and labels:
[1] = Solubility of the free acid; assay type: physicochemical
[2] = tested on: human pancreatic cancer cells AsPC-1, MIA PaCa-2, BxPC-3, Capan-1 and Panc-1; test: Cell viability and proliferation assay (CellTiter-Glo), pancreatic cancer cells; assay type: cell-based; conditions: 24 h or 48 h or 96 h incubation
Protocol: (§1) To assess the chemosensitivity of tumor cells, cell viability is measured by CellTiter-Glo® Luminescent Cell Viability Assay (Promega; WI, USA) per the manufacturer's instruction. Briefly, […] to 7×10^5 cells/ml are cultured in sterile 96-well plates in the presence of increasing concentrations of the drugs (test article, 0 to 100 μM), or vehicle in RPMI medium. The plates are then incubated for 24 to 96 h, and then 100 μl of CellTiter-Glo reagent is added to lyse the cells. After a 10-min incubation at room temperature, the luminescence is recorded in a luminometer with an integration time of 1 s per well. The luminescence signals for the drug-treated cells are normalized by the luminescence signal obtained from vehicle-treated cells. As an alternative method to quantitate cell viability, the trypan blue exclusion dye method was used. Vehicle- or drug-treated cells were assayed by adding trypan blue solution (0.4% in phosphate-buffered saline [PBS]) to the culture medium. After 3 min, the number of dead cells that retained the dye is compared to the total number of cells to calculate cell viability. GraphPad Prism 5 software is used to calculate IC50 and plot effect-dose curve of drugs. Multiplate reader: EnVision 2104 (PerkinElmer). % of control variability=100*[(X(drug_treated)−L(baseline))/(H(vehicle_control)−L(baseline))]. […]

[3] = target: TrkC (Homo sapiens, UniProt Q16288); test: PathHunter live whole cell functional assay, NT3 stimulated TrkC activation; assay type: cell-based; conditions: triplicate
[4] = Accelerated stability tests by XRPD and Raman; assay type: physicochemical; conditions: over 1 week
Protocol: Approximately 2 mg of sample was gently compressed on the XRPD zero back ground single obliquely cut silica sample holder. The sample was then loaded into a D/MAX 2200 X-ray powder diffractometer (Rigaku) or a Philips X-Pert MPD diffractometer and analyzed using the following experimental conditions (Tube anode: Cu; Generator tension: 40 kV; Tube current: 40 mA; Wavelength alpha1: 1.54056 Å; Wavelength alpha2: 1.5444 Å; Start angle [2 theta]: 5; End angle [2 theta]: 50; and Continuous scan). For suspected novel forms a slightly slower scan speed was used over a range of […].
Samples were analyzed by a Nicolet Almega XR Dispersive Raman Microscope for its Raman spectrum using the following conditions (Exposure Time: 1.0 s; Acquisition No: 10; Pinhole Size: […]; Wavelength range: 2000˜300 cm^−1 (single grating); Laser: He—Ne 780 nm 100% power, Objective: 20×/0.40 or 50×/0.75 (magnifier/numerical aperture number)). Then the measured Raman spectra were corrected by baseline subtraction using the software OMNIC™ v7.3.

[5] = target: TrkB (Homo sapiens, UniProt Q16620); test: PathHunter live whole cell functional assay, BDNF stimulated TrkB activation; assay type: cell-based; conditions: triplicate
[6] = tested on: mechanical allodynia in SNL rats; test: Spinal nerve ligation (SNL) mono-neuropathic pain model; assay type: in vivo, rat; conditions: oral administration, dose-dependent
Protocol: The surgical procedure will be performed according to the method firstly described by Kim and Chung (Kim S H, Chung J M. Pain. 1992; 50(3):355-63.). This procedure will result in tactile allodynia in the left hindpaw. […] The dose-response anti-allodynia effects of test compound: on day 14 after surgery, rats were treated with test article at one of four doses, vehicle or positive control by oral gavage, and PWT was determined by calibrated von Frey filaments at time points of 0 (right before the drug dosing, Pre-Dose Baseline), 0.5, 1, 2, 4 and 6 hr. The anti-allodynia effects of repeated administration of test article: Administration of test article was started on day 7 after surgery, once a day for 7 days. PWT was determined by calibrated von Frey filaments, 2 hour after test article dosing each day. After 7 days dosing, the measurement were continued, every other day without compound dosing for another 7 days. PWT was determined at the time points as given above.

[7] = tested on: human pancreatic cancer cells (PANC-1); test: Subcutaneous xenograft tumor mouse model; assay type: in vivo; conditions: oral 150 mg/kg, Day 7 postdose, p<0.02
[8] = tested on: human stomach cancer cells NCI-N87; test: Cell viability and proliferation assay (CellTiter-Glo), stomach cancer cells; assay type: cell-based; conditions: 24 h or 48 h or 96 h incubation
Protocol: as §1

[9] = tested on: mechanical allodynia in CCI rats; test: Chronic constriction injury (CCI) model of neuropathic pain; assay type: in vivo, rat; conditions: for side effects observed in dosed CCI-rats (drowsiness, motor incoordination, other abnormality): single oral dose (gabapentin 100 mg/kg)
Source text: The CCI model is one of the most commonly used mono-neuropathic pain model firstly described in details by Bennett and Xie (Bennett G J, Xie Y K. Pain. 1988; 33(1):87-107). It mimics important clinical chronic pain symptoms such as mechanical allodynia and thermal hyperalgesia. Chronic constriction injury of the sciatic nerve was produced by tying four loose ligatures around the left sciatic nerve according to the method of Bennett and Xie. […] Calibrated von Frey filaments were used to determine the lowest mechanical (tactile) threshold required to evoke a brisk paw withdrawal reflex in the rat hindpaws. Rats were allowed to acclimatize in wire mesh cages for 15-20 min prior to von Frey testing. Assessment of paw withdrawal thresholds (PWTs) using von Frey filaments was undertaken prior to CCI-surgery (pre-surgery baseline on day 0). Before the drug dosing on day 14, the pre-dose baseline was recorded for each rat. […] Drug-naïve CCI-rats (n=4-6 per group) were used. The oral (PO) gavage vehicle was either 10% (w/v) Povidone K25 in water for PO dosing, or 18% (w/v) CrosPovidone in water for PO dosing, or 0.5% CMC-Na/0.1% Tween 80 in distilled water for PO dosing. The positive control gabapentin was dissolved in the vehicle and orally given at 100 mg/kg (by oral gavage). Test article was dissolved or suspended in the vehicle and orally given at 25, 50, 100 and 150 mg/kg. Each CCI-rat was administered a single oral dose of test article, gabapentin or vehicle control, 2 hours before assessment of PWT.

[10] = Rat pharmacokinetics (plasma and brain, LC-MS/MS); assay type: in vivo; conditions: PO, 100 mg/kg, mean
Protocol: Compound I was dosed to nonfasted male CD IGS rats (weighting 180-250 g, Charles River Laboratories) by single intravenous (IV, n=3/group) or oral gavage (PO, n=4/group, including control rat group for drug-free blood and brain collection) administration at a nominal dose levels of 3 mg/kg (IV) or 5 mg/kg (IV) and 10, 50, 100 mg/kg (PO) respectively. Compound was formulated in either DMSO/Solutol: HS 15/phosphate buffered saline, pH 7.4 (PBS) for both IV and PO dosing, or 10% (w/v) Povidone K12 in water for IV dosing or 10% (w/v) Povidone K25 in water for PO dosing, or 18% (w/v) CrosPovidone in water for PO dosing. An intravenous profile was obtained by taking serial or terminal blood samples at 3, 10, 30, 60, 120, 240, 360, 1440 min post dose. An oral profile was obtained by taking serial or terminal blood samples at 10, 30, 60, 120, 240, 360, 480, 1440 min post dose.
Plasma Sample Collection from Rats. Animals were sedated under general inhalant anesthesia (3% isoflurane) for blood collection by cardiac puncture. […]
Plasma and brain samples were subjected to quantitative analysis by LC-MS/MS using compound-specific mass transitions. […] The concentrations of the test compound in brain (ng/g brain tissue) and in plasma (ng/mL) as well as the ratio of the brain concentration and the plasma concentration at each time point were determined and reported.

[11] = target: T1, TrkA (human full length) (Homo sapiens, UniProt P04629); test: PathHunter live whole cell functional assay, NGF stimulated TrkA activation; assay type: cell-based; conditions: U2OS cell background, mean of triplicate; read-out: cellular IC50, inhibition of NGF stimulated TrkA activation
T1 construct: expressed recombinantly on the intracellular C-terminus of TrkA (human full length); host or cells: U2OS
Source text: There are several methods to measure whole length TrkA activation stimulated by its natural ligand or agonist NGF in live cells. For example, the PathHunter Profiling services offered by DiscoveRx (Fremont, Calif.). The PathHunter technology is an adaptation of enzyme fragment complementation that provides a novel, generic functional cell-based assay format for detecting protein-protein interactions. In this cell-based assay approach, with U2OS cell background, a small peptide epitope (PK) is expressed recombinantly on the intracellular C-terminus of TrkA (human full length). This is co-expressed with a larger sequence, termed enzyme acceptor (EA) that is attached to a cytoplasmic protein SHC1 which will interact with TrkA intracellularly. NGF induced activation of TrkA receptor causes either homo- or hetero-dimerization of TrkA resulting in cross-phosphorylation. The SHC1-EA fusion protein then binds the phosphorylated TrkA receptor forcing complementation of the PK and EA fragment. This interaction generates an active beta-galactosidase enzyme, which is detected using a chemiluminescent substrate.

[12] = tested on: human liver cancer cells SK-HEP-1 and HepG2; test: Cell viability and proliferation assay (CellTiter-Glo), liver cancer cells; assay type: cell-based; conditions: 24 h or 48 h or 96 h incubation
Protocol: as §1

[13] = tested on: CFA-induced inflammatory pain; test: Rat CFA-induced inflammatory pain model; assay type: in vivo; conditions: 50 μL of 1 mM s.c. into the paw 3 hours after CFA
Protocol: Hyperalgesia was induced by subcutaneously injecting 50 μL of CFA (Sigma-Aldrich, St. Louis, Mo., USA) into the plantar surface of the left hind paw of the rats using a 30-gauge hypodermic needle under sevoflurane anesthesia. The classical signs of inflammation, including edema and redness, for up the last day of tests were recorded. To assess the effect of test article on CFA-induced inflammatory pain, the rats were anesthetized with sevoflurane 3 hours after CFA injection and then injected 50 μL of either 1 mM test article (n=6) or Saline (n=4) subcutaneously (S.C.) into the same site as the CFA injection, using a 30-gauge hypodermic needle under sevoflurane anesthesia, according to published method (Ueda K., et al, J Pharmacol. Sci., 2010; 112(4):438-43). Paw withdrawal latencies (thermal hyperalgesia) are measured before and at […] 2, 4, and 7 days after CFA injection. Mechanical thresholds were also measured in the same way with either Formula 1 compound (n=6) or Saline (n=4) at similar different time points (for example, 1, 3 hour and 3 days). The noxious heat and mechanical thresholds were separately measured in each group of rats. The threshold was measured 3-5 times in each rat and then averaged. Stimulus interval was 5 min.

Chain of TrkC (Q16288 32-839): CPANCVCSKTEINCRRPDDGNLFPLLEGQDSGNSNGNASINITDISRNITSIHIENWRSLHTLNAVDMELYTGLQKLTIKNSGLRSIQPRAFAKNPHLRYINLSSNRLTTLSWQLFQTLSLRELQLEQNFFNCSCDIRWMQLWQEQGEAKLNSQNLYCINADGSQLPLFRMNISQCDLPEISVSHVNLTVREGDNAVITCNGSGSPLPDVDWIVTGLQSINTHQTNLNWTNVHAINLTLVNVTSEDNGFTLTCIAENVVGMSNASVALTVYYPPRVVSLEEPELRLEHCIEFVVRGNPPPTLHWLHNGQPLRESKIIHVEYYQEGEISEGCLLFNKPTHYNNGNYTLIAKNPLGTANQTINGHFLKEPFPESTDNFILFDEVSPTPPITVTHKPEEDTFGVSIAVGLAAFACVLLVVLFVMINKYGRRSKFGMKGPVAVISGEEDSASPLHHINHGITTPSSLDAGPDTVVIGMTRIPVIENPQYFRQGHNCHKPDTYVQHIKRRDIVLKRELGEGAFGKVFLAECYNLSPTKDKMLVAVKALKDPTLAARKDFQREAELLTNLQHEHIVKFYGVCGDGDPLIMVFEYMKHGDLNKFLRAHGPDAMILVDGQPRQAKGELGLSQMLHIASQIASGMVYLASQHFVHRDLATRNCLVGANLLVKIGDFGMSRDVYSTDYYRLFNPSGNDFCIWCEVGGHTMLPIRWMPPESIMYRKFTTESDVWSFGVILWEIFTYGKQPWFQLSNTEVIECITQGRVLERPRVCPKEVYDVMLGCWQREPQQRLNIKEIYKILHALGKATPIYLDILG
Chain of TrkB (Q16620 32-822): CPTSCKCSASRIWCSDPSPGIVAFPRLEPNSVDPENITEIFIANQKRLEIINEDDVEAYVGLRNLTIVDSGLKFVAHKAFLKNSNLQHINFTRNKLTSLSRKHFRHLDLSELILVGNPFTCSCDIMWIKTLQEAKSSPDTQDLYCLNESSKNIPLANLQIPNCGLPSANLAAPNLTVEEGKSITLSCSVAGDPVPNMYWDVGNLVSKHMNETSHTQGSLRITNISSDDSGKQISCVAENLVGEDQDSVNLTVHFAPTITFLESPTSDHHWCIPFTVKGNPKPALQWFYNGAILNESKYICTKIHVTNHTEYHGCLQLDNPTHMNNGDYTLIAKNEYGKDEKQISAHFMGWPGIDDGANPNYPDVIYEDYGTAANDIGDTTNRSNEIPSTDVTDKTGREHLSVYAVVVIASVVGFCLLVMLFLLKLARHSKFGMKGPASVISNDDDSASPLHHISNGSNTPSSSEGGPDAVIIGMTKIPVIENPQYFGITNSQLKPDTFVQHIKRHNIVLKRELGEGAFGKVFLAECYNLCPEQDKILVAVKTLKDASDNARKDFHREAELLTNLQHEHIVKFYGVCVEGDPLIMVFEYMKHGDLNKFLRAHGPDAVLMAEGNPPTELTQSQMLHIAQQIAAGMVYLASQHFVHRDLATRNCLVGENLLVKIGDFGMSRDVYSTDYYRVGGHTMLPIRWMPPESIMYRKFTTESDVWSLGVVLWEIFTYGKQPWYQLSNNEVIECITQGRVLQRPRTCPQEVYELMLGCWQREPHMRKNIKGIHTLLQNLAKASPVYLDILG
T1 sequence (P04629 33-796): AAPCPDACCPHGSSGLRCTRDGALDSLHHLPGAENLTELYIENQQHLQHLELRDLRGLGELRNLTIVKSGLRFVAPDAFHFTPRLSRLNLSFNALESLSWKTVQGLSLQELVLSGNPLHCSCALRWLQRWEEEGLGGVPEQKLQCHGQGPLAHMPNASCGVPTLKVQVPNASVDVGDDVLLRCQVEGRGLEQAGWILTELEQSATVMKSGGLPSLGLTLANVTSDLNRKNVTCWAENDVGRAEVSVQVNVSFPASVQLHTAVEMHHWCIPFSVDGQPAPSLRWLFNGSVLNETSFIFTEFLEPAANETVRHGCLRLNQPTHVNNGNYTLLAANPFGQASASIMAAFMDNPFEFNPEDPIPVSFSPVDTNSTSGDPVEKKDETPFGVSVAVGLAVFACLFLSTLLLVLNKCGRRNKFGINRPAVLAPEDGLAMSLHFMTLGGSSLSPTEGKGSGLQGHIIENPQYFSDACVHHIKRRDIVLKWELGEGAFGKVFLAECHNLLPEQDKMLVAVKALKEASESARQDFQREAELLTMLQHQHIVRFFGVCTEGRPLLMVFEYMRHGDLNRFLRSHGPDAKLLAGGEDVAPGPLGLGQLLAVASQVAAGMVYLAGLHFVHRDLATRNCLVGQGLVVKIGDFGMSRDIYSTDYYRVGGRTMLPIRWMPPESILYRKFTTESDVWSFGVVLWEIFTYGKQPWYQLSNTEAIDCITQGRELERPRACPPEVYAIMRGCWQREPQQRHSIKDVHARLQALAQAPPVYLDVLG

## O=C(O)c1ccc(Nc2cc(N3CCN(C4CCCCC4)CC3)c3noc4c3c2C(=O)c2ccccc2-4)cc1 [Compound 701, 4-((3-(4-cyclohexylpiperazin-1-yl)-6-oxo-6H-anthra[1,9-cd]isoxazol-5-yl)amino)benzoic acid]
[1]
  solubility: limited solubility

## O=C([O-])c1ccc(Nc2cc(N3CCN(C4CCCCC4)CC3)c3noc4c3c2C(=O)c2ccccc2-4)cc1.[Na+] [Compound I, Sodium 4-((3-(4-cyclohexylpiperazin-1-yl)-6-oxo-6H-anthra[1,9-cd]isoxazol-5-yl)amino)benzoate]
[2]
  IC50: 2 to 5 µM
[3]
  IC50: > 10 µM
[4]; 40° C./75% RH
  solid-state stability by XRPD and Raman: no instability
[4]; 80° C.
  solid-state stability by XRPD and Raman: no instability
[5]
  IC50: > 10 µM
[6]
  reduction of mechanical allodynia (paw withdrawal threshold, von Frey): significantly reduced mechanical allodynia
[7]
  tumor volume reduction compared to vehicle treated group: more than 21%
[8]
  IC50: ~7 µM
[9]; single oral dose 25, 50, 100 and 150 mg/kg, 2 hours before assessment, dose-dependent
  reduction of mechanical allodynia (paw withdrawal threshold, von Frey, FIG. 2): significantly reduced mechanical allodynia
[9]
  side effects observed in dosed CCI-rats (drowsiness, motor incoordination, other abnormality): no such effect or other abnormality was observed
[10]
  F: ~100%
[11]
  IC50: ~0.05 µM
[12]
  IC50: 2 to 8 µM
[13]
  analgesic effect (thermal and mechanical thresholds, FIG. 1): efficacious in relieving the pain

## NCC1(CC(=O)O)CCCCC1 [gabapentin, reference compound]
[9]
  side effects observed in dosed CCI-rats (drowsiness, motor incoordination, other abnormality): drowsiness or motor incoordination
